Experiments:
[1] = system: Thp1 human monocytic cells; assay: Thp1 Monocyte ATP Production Assay; format: cell-based; conditions: Thp1 cells, 24 hour incubation, ATPLite; 9-point range 10 μM to 10 nM, mean of 2 independent experiments
Description: In vitro potency of test compounds was determined by incubation with Thp1 human monocytic cells and subsequent determination of Adenosine TriPhosphate (ATP) levels using firefly luciferase.
ATP is present in all metabolically active cells. When cells lose integrity, their ability to synthesise ATP is rapidly lost. […] See, e.g., Kang et al., 2015; Jiang et al., 2013. Levels of ATP can be monitored using a system based on firefly (Photinus pyralis) luciferase (see, e.g., Auld et al., 2009) using commercially available kits. A system known as
ATPlite™ was using to measure effects of the test compounds on cellular viability in vitro. This one-step assay system is an adenosine triphosphate (ATP) monitoring system based on the production of light caused by the reaction of ATP from the cells with added luciferase and D-luciferin, as illustrated in the reaction scheme below:
The emitted light is proportional to the ATP concentration.
Thp1 cells were plated at 112500 cells per well in 125 μL RPMI-1640 (no glucose) with 1% FBS in 96-well plates. Test compounds were prepared as 100 mM solutions in DMSO. These stock solutions were diluted in DMSO and then diluted 1000× in culture medium (RPMI) before being added directly to the wells so as to give the desired final compound concentration. After a 24 hour incubation at 37° C./5% CO2, ATPLite™ (Perkin Elmer) was added to each well (1:10 v/v, 10 μL). The plate was then incubated at room temperature for 5 minutes and the emitted light was quantified on Viewlux with a measurement time of 0.3 seconds and binning 4×4.
The average results for each test compound were expressed as a percent (%) of the average control value reflecting cell viability. The average values across the concentrations tested were then plotted and the IC50 for was calculated by fitting the data to a 4-parameter IC50 equation using software from Graf it (Erithacus Software). Each experiment was repeated twice and the data are presented as the mean IC50 from both experiments.

[2] = system: rat hepatocytes; assay: Rat hepatocyte stability; format: in vitro ADME; conditions: 1 μM, 60 minute incubation
Description: (§1) Metabolic stability of test compounds was measured by determination of the rate of disappearance of the compound when incubated in the presence of rat or human hepatocytes, a primary source of the most important enzymes (cytochrome P450s) involved in drug metabolism. Study of drug stability in the presence of primary hepatocytes is accepted as a valuable model permitting rapid prediction of in vivo drug stability.
(§2) Rat or human hepatocytes were obtained from a commercial source and viability was assessed using a trypan blue solution prior to use. Test compounds (final concentration 1 μM, 0.1% DMSO, 0.9% acetonitrile) or a marker (diclofenac or diltiazem, final assay concentration 1 μM, 0.1% DMSO, 0.9% acetonitrile) were incubated with pooled hepatocytes for a 60 minute period and samples removed at up to 6 time points and analysed by LC-MS/MS for the presence/amount of test compounds.
(§3) Each compound was incubated for 0, 5, 15, 30, 45, or 60 minutes. The reactions were stopped by the addition of methanol containing an internal standard (1 μM Tolbutamide) at the appropriate time points, mixed and placed at −20° C. for ≥1 hour to quench and allow protein to precipitate. All samples were centrifuged (2500×g, 20 minutes, 4° C.). The aliquots were analysed using LC-MS/MS. Reactions were performed in duplicate at 37° C.
(§4) Data were processed, and the results plotted as In(concentration) vs. time. The elimination rate constant (slope of the regression line, k) was calculated using the following formula, where C(t) is the concentration at time t and C(0) is the starting concentration:
(§5) The half-life (t1/2) was calculated using the following formula: […]
(§6) The intrinsic clearance (CIint) was calculated using the following formula, where [cell] is the hepatocyte concentration in the assay: […]

[3] = system: human hepatocytes; assay: Human hepatocyte stability; format: in vitro ADME; conditions: human hepatocytes, 1 μM, 60 minute incubation
Description: as §1, §2, §3, §4, §5, §6

[4] = biological target: CYP2C9 (Homo sapiens (Human), UniProt P11712); assay: Human Cytochrome P450 Inhibition Assay (Bactosomes); format: in vitro ADME; conditions: recombinant Bactosomes, 10 minutes, 37° C.
Sequence of CYP2C9 (P11712 whole entry): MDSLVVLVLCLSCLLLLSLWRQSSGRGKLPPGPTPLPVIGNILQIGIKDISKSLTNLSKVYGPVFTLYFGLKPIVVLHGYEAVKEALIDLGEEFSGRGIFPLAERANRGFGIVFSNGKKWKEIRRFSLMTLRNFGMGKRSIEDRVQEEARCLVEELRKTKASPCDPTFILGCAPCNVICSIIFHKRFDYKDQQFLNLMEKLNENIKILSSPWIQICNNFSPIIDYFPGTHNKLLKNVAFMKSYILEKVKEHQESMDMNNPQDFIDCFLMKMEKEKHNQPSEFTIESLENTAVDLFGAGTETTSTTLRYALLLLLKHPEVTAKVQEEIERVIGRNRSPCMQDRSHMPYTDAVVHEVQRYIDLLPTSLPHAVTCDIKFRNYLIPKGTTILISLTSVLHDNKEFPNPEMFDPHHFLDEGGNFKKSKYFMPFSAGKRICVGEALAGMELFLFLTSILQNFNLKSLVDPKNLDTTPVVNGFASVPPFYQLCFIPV

[5] = biological target: CYP2C19 (Homo sapiens (Human), UniProt P33261); assay: as above; format: in vitro ADME; conditions: recombinant Bactosomes, 10 minutes, 37° C.
Sequence of CYP2C19 (P33261 whole entry): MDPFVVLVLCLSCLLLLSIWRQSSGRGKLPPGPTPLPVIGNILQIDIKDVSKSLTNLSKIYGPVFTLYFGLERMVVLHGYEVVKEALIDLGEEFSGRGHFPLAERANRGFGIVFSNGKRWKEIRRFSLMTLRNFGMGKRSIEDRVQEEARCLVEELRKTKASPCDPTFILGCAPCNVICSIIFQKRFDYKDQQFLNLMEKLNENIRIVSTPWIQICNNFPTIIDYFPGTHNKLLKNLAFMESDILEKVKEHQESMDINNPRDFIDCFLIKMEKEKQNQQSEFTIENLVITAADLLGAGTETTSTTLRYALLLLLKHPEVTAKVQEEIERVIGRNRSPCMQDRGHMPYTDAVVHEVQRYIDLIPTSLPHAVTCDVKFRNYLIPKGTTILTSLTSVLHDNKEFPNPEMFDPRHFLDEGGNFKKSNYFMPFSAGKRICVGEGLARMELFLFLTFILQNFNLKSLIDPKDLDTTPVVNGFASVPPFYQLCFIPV

[6] = biological target: CYP2D6 (Homo sapiens (Human), UniProt P10635); assay: as above; format: in vitro ADME; conditions: recombinant Bactosomes, 10 minutes, 37° C.
Sequence of CYP2D6 (P10635 whole entry): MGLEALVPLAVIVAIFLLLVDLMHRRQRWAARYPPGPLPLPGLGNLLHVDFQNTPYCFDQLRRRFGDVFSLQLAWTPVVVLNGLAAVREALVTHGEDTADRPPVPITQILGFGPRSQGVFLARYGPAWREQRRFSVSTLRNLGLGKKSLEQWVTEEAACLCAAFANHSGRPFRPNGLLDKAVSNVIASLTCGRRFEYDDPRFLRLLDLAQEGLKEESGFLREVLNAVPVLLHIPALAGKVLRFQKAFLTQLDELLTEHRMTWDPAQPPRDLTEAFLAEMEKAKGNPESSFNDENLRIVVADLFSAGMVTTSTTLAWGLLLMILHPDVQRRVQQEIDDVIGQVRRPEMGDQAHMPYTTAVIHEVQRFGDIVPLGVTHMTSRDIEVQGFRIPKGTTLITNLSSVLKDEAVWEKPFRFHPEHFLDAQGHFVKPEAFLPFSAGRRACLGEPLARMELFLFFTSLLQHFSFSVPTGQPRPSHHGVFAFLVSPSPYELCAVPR

[7] = biological target: CYP3A4 (Homo sapiens (Human), UniProt P08684); assay: as above; format: in vitro ADME; conditions: recombinant Bactosomes, 10 minutes, 37° C.
Sequence of CYP3A4 (P08684 whole entry): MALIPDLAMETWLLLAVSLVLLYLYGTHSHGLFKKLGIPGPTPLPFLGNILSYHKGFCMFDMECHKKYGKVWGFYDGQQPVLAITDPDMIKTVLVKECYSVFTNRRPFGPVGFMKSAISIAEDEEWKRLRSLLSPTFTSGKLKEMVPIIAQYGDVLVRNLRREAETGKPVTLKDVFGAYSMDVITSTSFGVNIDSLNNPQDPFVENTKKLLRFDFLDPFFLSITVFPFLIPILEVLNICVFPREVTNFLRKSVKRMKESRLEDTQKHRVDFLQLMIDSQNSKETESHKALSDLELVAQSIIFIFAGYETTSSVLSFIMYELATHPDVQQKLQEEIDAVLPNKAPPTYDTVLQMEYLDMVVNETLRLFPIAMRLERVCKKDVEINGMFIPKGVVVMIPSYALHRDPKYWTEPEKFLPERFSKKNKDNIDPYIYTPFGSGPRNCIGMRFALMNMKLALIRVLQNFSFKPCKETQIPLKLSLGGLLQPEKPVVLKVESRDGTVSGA

[8] = system: collagen-induced arthritis in DBA/1j mice; assay: Mouse Collagen-Induced Arthritis; format: in vivo; conditions: 10 mg/kg/day, once daily for 14 days, arthritic index vs control
Description: Seven- to eight-week-old male DBA/1j mice were used for all procedures. Animals were housed in groups of 10, and were maintained at 21° C.±2° C. on a 12-hour light/dark cycle with food and water ad libitum. Complete Freund's adjuvant (CFA) was prepared by emulsifying bovine type II collagen at 4 mg/mL with a 4 mg/mL suspension of Mycobacterium tuberculosis H37Ra in Incomplete Freund's Adjuvant (IFA) (0.85 mL paraffin oil and 0.15 mL mannide monooleate) in a 1:1 (v/v) ratio. All mice were immunised subcutaneously with 200 μg of bovine type II collagen in CFA. 21 days later, all mice were immunised subcutaneously with 100 μg of bovine type II collagen in IFA. The mice started to develop signs and symptoms of arthritis following the ‘booster’ immunisation.
For macroscopic assessment of arthritis, the following signs were monitored in each paw of each mouse three times per week and summed to generate the Arthritic Index (AI) (the maximum AI for one animal is 16): • 0=no visible effects of arthritis. • 1=oedema and/or erythema of 1 digit. • 2=oedema and/or erythema of 2 digits. • 3=oedema and/or erythema of more than 2 digits. • 4=severe arthritis of entire paw and digits.
Animals were sorted into treatment groups with a mean arthritic index of 2.5 and then dosed once daily for 14 days with compound: by oral gavage for test compounds, or by subcutaneous injection at a dose of 10 mg/kg for the positive control, etanercept. After completion of the experiment, the mice were sacrificed.
The data were analysed by generating an average of the arthritic index across each treatment group. The mean arthritic index was then compared to the arthritic index of control (untreated) animals using the following formula to generate a percentage inhibition of disease.

[9] = biological target: CYP1A2 (Homo sapiens (Human), UniProt P05177); assay: Human Cytochrome P450 Inhibition Assay (Bactosomes)
Sequence of CYP1A2 (P05177 whole entry): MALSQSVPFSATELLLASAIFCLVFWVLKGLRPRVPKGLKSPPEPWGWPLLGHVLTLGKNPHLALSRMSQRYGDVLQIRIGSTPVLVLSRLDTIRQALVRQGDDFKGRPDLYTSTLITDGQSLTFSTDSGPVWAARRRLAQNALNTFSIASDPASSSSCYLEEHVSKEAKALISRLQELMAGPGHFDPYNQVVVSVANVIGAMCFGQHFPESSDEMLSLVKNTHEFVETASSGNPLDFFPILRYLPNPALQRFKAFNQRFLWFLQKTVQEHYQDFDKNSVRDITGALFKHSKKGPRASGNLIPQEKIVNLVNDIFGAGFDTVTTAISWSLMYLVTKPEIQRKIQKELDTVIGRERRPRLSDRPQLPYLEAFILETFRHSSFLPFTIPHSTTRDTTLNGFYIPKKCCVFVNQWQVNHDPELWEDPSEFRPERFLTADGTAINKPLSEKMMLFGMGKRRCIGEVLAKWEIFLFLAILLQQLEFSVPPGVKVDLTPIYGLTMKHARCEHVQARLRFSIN

## C[C@]1(O)CC[C@@H](NS(=O)(=O)c2ccc(-c3ccc(F)cc3F)cc2)CC1 [ABD899, reference compound]
[1]
  IC50: 0.2 µM
[2]
  Rat Clint (μL/min/million cells): 57 μL/min/million cells
  Rat t1/2: 0.4 h
[3]
  Human Clint (uL/min/million cells): 9 uL/min/million cells
  Human t1/2: 2.48 h
[4]
  IC50: 3.9 µM
[5]
  IC50: 7.3 µM
[6]
  IC50: 45.3 µM
[7]
  IC50: 21.6 µM
[8]
  % inhibition of disease: 77%
[9]
  IC50: > 25 µM

Reference: US11834414B2, “1-methyl-4-[(4-phenylphenyl)sulfonylmethyl]cyclohexyanol and 1-methyl-4-[[4-(2-pyridyl)phenyl]sulfonylmethyl]cyclohexanol compounds and their therapeutic use” (Modern Biosciences Limited, priority 2018, dated 2023)
